Results from patent US20130253048A1, “Pharmaceutical Composition for Promoting Osteogenesis Containing Axial-equatorial Aryl-oriented Furofuran-type Lignan, and Pharmaceutical Preparation, Functional Food Product, and Health Food Product Comprising Composition” (ERINA CO., INC., priority 2010, published 2013).
Where two headings read alike, the source gives them in different places.

Tests used:
[1] = test system: BMCs and UAMS-32 cells co-culture; experiment: Differentiation of osteoblast and osteoclast in co-culture (ALP and TRAP activity); assay type: cell-based, mouse; settings: for activity at 2 µM / activity at 6 µM / activity at 20 µM / activity at 60 µM / activity at 80 µM: Mus musculus, 120 h, 5 days co-culture, negative control = 100%
Experimental: Four-week-old ddY male mice (Japan SLC, Inc.) were killed by the cervical dislocation, and then, the long bones of left and right lower extremities were excised with muscles. All of the muscles were removed from the bones, and the femurs and shinbones were obtained. The both ends of the obtained femurs and shinbones were scraped a little by a little. The cells in the bone morrow were pushed out into the following medium by using a 2.5 ml of syringe with a needle (22G×1¼; Thermo corporation). After that, contaminants were eliminated through a filter ([…] Nylon Cell Strainer; Japan Becton, Dickinson and Company) to obtain more than 2×10^8 cells of BMCs.
Osteoblast-like cells, UAMS-32 cells, were purchased from the Institution of Physical and Chemical Research (Japan).
In order to prepare the basic medium, 10.2 g of α-MEM (powder, Life Technologies Japan Corporation (GIBCO)) was dissolved in 1 L of purified water and 2.2 g/l (w/v) of sodium bicarbonate was added. Then, it was filtered through a sterilized filter of which pore diameter was 0.22 μm (Nihon Millipore K. K). Further, the basic mediums were supplemented with 10% (v/v) fetal bovine serum (FBS) (Sigma, heat-inactivated for 30 minutes at 56° C.).
In this example, 1 μM of PGE2 and 10 nM of Vitamin D3 (both from Wako Pure Chemical Industries, Ltd.) were added to the medium to prepare a co-culture medium. By using the co-culture medium, cell suspensions of BMCs and UAMS-32 obtained as mentioned above were prepared. For the test group, 2 to 80 μM of fargesin was added, and for the negative control group, DMSO was added so as to be 0.3% of the final concentration.
BMCs were plated at the concentration of 2×10^6 cells/well, and UAMS-32 cells were plated at the concentration of 1×10^5 cells/well in each well of the 96 well plates, respectively. Then, the cells were co-cultured in the co-culture medium under the conditions of 5% CO2 and 37 degree centigrade for 5 days. The medium were changed on the 3rd days from the culture start. After cells were fixed as described in below, alkaline phosphatase (ALP) activity was measured as the index of osteoblast differentiation; tartrate-resistant acid phosphatase activity was measured as the index of osteoclast differentiation.
The cells were cultured under the above-mentioned conditions, 10% formalin aqueous solution was added into each well still standing for 10 minutes, and then ethanol was added still standing for further 1 minute to fix the cells. In order to measure TRAP activity, 10 mM sodium tartrate/50 mM citric acid buffer solution containing 1.36 mg of p-nitrophenyl sodium phosphate (Sigma-Aldrich Co. LLC.) (pH 4.6) was prepared as a substrate solution for TRAP. The substrate solution for TRAP was added to the well at the volume of 100 μl/well, and reacted for 15 to 20 minutes at a room temperature. The reaction solution was transferred into another 96 well plate, to which 100 μl/well of 0.1N NaOH was previously added to stop the reaction, and they were measured at absorbance of 405 nm.
50 mM sodium tartrate/0.1 M of sodium acetate buffer (pH 5.0) including 0.1 mg/ml naphthol AS-MX phosphate (sigma N-4875) and 0.6 mg/ml Fast red violet LB salt (both from Sigma-Aldrich Japan Co. LLC.) was prepared as TRAP staining solution. The TRAP staining solution was added to the wells to stain the cells in negative control group till they took on red color under room temperature. After that, the cells were washed with distilled water. The cells stained red and having not less than two nuclei was decided as multinuclear osteoclast, of which number was counted by using the microscope.
After the cells were cultured under the conditions, 100 μl/well of methanol cooled to −20 degree centigrade was added into the cells and stood for further 1 minute to fix the cells. […]

[2] = Cell viability, MTT test in MC3T3-E1; assay type: cell-based; settings: mouse, MC3T3-E1 cells (osteoblast-like cell line), MC3T3-E1, negative control = 100
Experimental: (§1) MC3T3-E1 cells ((IAA) the Institution of Physical and Chemical Research), osteoblast-like cell line derived from the mouse fetus cranial bone cells, were inoculated into the 96 well plate at 4,000 cells/well. As a medium, the basal medium prepared in the Example 3 supplemented with fargesin at 2 to 80 μM was used. Pre-culture was performed by using the basal medium only under the conditions of 5% CO2 and 37 degree centigrade for 3 days. After that, the conditioned medium was changed to fresh medium with fargesin; the culture was performed under the conditions of 5% CO2 and 37 degree centigrade for 3 days. On the day 4 from the culture start, the conditioned medium was changed to the fresh medium; the culture was further performed under the conditions of 5% CO2 and 37 degree centigrade for 3 days. After the termination of the culture, the following MTT test, measurement of ALP activities, and the staining were performed.
Cell viability was measured by using MTT test. MTT reagent was prepared by dissolving 50 mg of 3-(4,5-dimethyl-thiazol-2-yl)-2,5-diphenyl tetrazolium bromide in 10 ml of PBS (−). After the termination of the culture, the medium containing fargesin was partially removed from each well to adjust the solution volume to 100 μL. Ten μl of the MTT reagent was then added to each well to be reacted to give blue-violet color in the CO2 incubator.
After the termination of the reaction, all medium was removed from each well, 100 μl of DMSO as a lysis solution was added to each well, and then the absorbance was measured at 570 nm to study the viability of live cells.

MC3T3-E1 cells = experiment: Osteoblast activation, ALP activity in MC3T3-E1; assay type: cell-based, mouse
Experimental: as §1
Measurement of the ALP activity, statistical processing of the data, and the observation of differentiated cells were performed as the same way as those in Example 3, except the staining of the osteoclast cells were omitted.

Q: For COc1ccc([C@@H]2OC[C@H]3[C@@H]2CO[C@@H]3c2ccc3c(c2)OCO3)cc1OC [fargesin, Fargesin], which “cells differentiated to the osteoclast, ALP and TRAP double staining” value ([1]; 60 to 80 μM, co-culture) is on record?
A: Its value is “rarely observed”.

Q: What about the activity at 2 µM ([1]; read-out: ALP activity (%)) of the same molecule?
A: The activity at 2 µM was 113 ± 15.7%.

Q: And the activity at 2 µM ([1]; read-out: TRAP activity (%))?
A: Its activity at 2 µM is 89.5 ± 5.4%.

Q: And the activity at 6 µM ([1]; read-out: ALP activity (%))?
A: Its activity at 6 µM is 120 ± 10.1%.

Q: And the activity at 6 µM ([1]; read-out: TRAP activity (%))?
A: Its activity at 6 µM is 88.7 ± 7.2%.

Q: What about the activity at 20 µM ([1]; read-out: ALP activity (%)) of the same molecule?
A: Its activity at 20 µM is 146 ± 14.4%.

Q: And the activity at 20 µM ([1]; read-out: TRAP activity (%))?
A: Its activity at 20 µM is 74.4 ± 8.5%.

Q: And the activity at 60 µM ([1]; read-out: ALP activity (%))?
A: The activity at 60 µM was 164 ± 14%.

Q: And the activity at 60 µM ([1]; read-out: TRAP activity (%))?
A: Its activity at 60 µM is 42.4 ± 7.1%.

Q: What about the activity at 80 µM ([1]; read-out: ALP activity (%)) of the same molecule?
A: The activity at 80 µM was 199 ± 14.6%.

Q: What about the activity at 80 µM ([1]; read-out: TRAP activity (%)) of the same molecule?
A: The activity at 80 µM was 35.7 ± 5.6%.

Q: And the viability at 6 days, 2 µM ([2]; 2 μM)?
A: Its viability at 6 days, 2 µM is 106 ± 3.2%.

Q: What about the viability at 6 days, 6 µM ([2]; 6 μM) of the same molecule?
A: The viability at 6 days, 6 µM was 105 ± 3.3%.

Q: What about the viability at 6 days, 20 µM ([2]; 20 μM) of the same molecule?
A: The viability at 6 days, 20 µM was 100 ± 3.4%.

Q: What about the viability at 6 days, 60 µM ([2]; 60 μM) of the same molecule?
A: Its viability at 6 days, 60 µM is 89.1 ± 3.9%.

Q: What about the viability at 6 days, 80 µM ([2]; 80 μM) of the same molecule?
A: Its viability at 6 days, 80 µM is 92.6 ± 3.7%.

Q: And the “ALP stained image of osteoblast-like cells” value (MC3T3-E1 cells; 60 to 80 μM, MC3T3-E1)?
A: The value was “many osteoblast stained in blue were observed”.

Q: What about the activity at 2 µM (MC3T3-E1 cells; Mus musculus, 2 μM, MC3T3-E1, negative control = 100) of the same molecule?
A: The activity at 2 µM was 82.8 ± 8%.

Q: What about the activity at 6 µM (MC3T3-E1 cells; Mus musculus, 6 μM, MC3T3-E1, negative control = 100) of the same molecule?
A: The activity at 6 µM was 89.8 ± 9.8%.

Q: What about the activity at 20 µM (MC3T3-E1 cells; Mus musculus, 20 μM, MC3T3-E1, negative control = 100) of the same molecule?
A: The activity at 20 µM was 99.8 ± 13.4%.

Q: And the activity at 60 µM (MC3T3-E1 cells; Mus musculus, 60 μM, MC3T3-E1, negative control = 100)?
A: Its activity at 60 µM is 180 ± 31.5%.

Q: What about the activity at 80 µM (MC3T3-E1 cells; Mus musculus, 80 μM, MC3T3-E1, negative control = 100) of the same molecule?
A: Its activity at 80 µM is 167 ± 32.7%.
